Results from patent publication US20160349268A1, “STEPWISE ASSEMBLED CAPTURE COMPOUNDS COMPRISING A CLEAVABLE FUNCTION AND METHOD FOR ISOLATING AND/OR CHARACTERIZING BIOMOLECULES OR BIOMOLECULE FRAGMENTS, IN PARTICULAR PROTEINS OR PROTEIN FRAGMENTS, OF COMPLEX MIXTURES” (CAPROTEC BIOANALYTICS GMBH, priority 2014, published 2016).

Tests used:
Type in all cases: physicochemical
[1] = Cleavage of 1 (CPT600) after photo-reaction in solution (UV irradiation, HCl treatment, RP-HPLC UV/MS); settings: BPC + All MS
Experimental: In a 100 μL PCR tube, 20 μL 73 μM 1 (CPT600) was irradiated at 4° C. for 5 min in the caproBox (310 nm version, caprotec bioanalytics GmbH, Berlin, Germany). 1.7 μL 37% HCl was added, mixed and the solution was incubated on a thermoshaker at 37° C. for 2 h. Then 100 μL Milli-Q water and 9 μL 2N NaOH were added and mixed. The resulting solution as analyzed by RP-HPLC coupled to a UV detector and a mass spectrometer (FIG. 6 and Table 2a) as described in example 1. As a control, the same sample but with only very brief incubation under acidic conditions (r.t. for about 10 s instead of 37° C. for 2 h) was prepared (FIG. 7 and Table 2b).

[2] = Cleavage of 1 (CPT600) after photo-reaction on CPG-pN3, with CPG-Ac and in-solution controls; parameters: Area: unit not given here
Experimental: 20 μL 10 mg/mL 1 (CPT600)-loaded CPG-pN3 from example 1 were transferred into a 100 μL PCR tube, centrifuged, the supernatant was discarded and 20 μL in water was added. The suspension was irradiated at 4° C. for 5 min (with re-suspending every 30 s) in the caproBox (310 nm version, caprotec bioanalytics GmbH, Berlin, Germany). 1.7 μL 37% HCl was added, mixed and the solution was incubated on a thermoshaker at 37° C. for 2 h. Then 100 μL Milli-Q water and 9 μL 2N NaOH were added and mixed. After centrifugation, the resulting supernatant was analyzed by RP-HPLC coupled to a UV detector and a mass spectrometer as described in example 1. As a control, the same sample but with only very brief incubation under acidic conditions (r.t. for about 10 s instead of 37° C. for 2 h) was prepared.
Further controls included using 1 (CPT600)-treated CPG-Ac from example 1 (short and long acid treatment) instead of 1 (CPT600)-loaded CPG-pN3 and 1 (CPT600) in solution (short and long acid treatment) as described in example 2. All six experiments were performed side-by-side.

[3] = Cleavage reaction of photo-reacted compound 11 (12) with HCl / 2-nitrobenzhydrazide, LC-MS; settings: for Area/a.u. (LC-MS EIC peak): 45 μM 12, 1 h room temperature
Experimental: A solution of 75 μL 56 μM 11 (CPT727, Capture Compound bearing tetrazine as sorting function and a chemically cleavable photo-reactivity function) in 50% acetonitrile was irradiated with UV light (λmax=310 nm) for 5 min at 4° C. in the caproBox to activate the reactivity function yielding 12 (Scheme 12).
Cleavage of the photo-reacted reactivity function (15) from 12 yielding also 17 as a product (Scheme 13) was investigated under several conditions summarized in Table 5. The reaction was performed in a final volume of 10 μl for 1 h at room temperature. Each reaction mixture contained 8 μl of the above described solution of 12 (45 μM final concentration), 1 μl 100 mM or 10 mM 2-nitrobenzhydrazide in DMSO or just DMSO and 1 μl 100 mM or 10 mM HCl in water or just water. Analysis was performed by LC-MS. Integration of peak areas corresponding to the respective species is included into Table 5.

[4] = 1 (CPT600) after UV irradiation and HCl 37 °C 2 h
[5] = In solution, 0 h HCl, BPC + All MS
[6] = In solution, 0 h HCl, UV 254 nm
[7] = CPG-Ac instead of CPG-pN3, 2 h acidic treatment
[8] = In solution, 2 h HCl, UV 254 nm
[9] = In solution, 2 h HCl, BPC + All MS
[10] = On CPG-Ac, 2 h HCl, BPC + All MS
[11] = On CPG-pN3, 2 h HCl, BPC + All MS
[12] = c(HCl) 0 mM, c(2-nitrobenzhydrazide) 0 mM
[13] = c(HCl) 0 mM, c(2-nitrobenzhydrazide) 1 mM
[14] = c(HCl) 0 mM, c(2-nitrobenzhydrazide) 10 mM
[15] = c(HCl) 1 mM, c(2-nitrobenzhydrazide) 0 mM
[16] = c(HCl) 1 mM, c(2-nitrobenzhydrazide) 1 mM
[17] = c(HCl) 1 mM, c(2-nitrobenzhydrazide) 10 mM
[18] = c(HCl) 10 mM, c(2-nitrobenzhydrazide) 0 mM
[19] = c(HCl) 10 mM, c(2-nitrobenzhydrazide) 1 mM
[20] = c(HCl) 10 mM, c(2-nitrobenzhydrazide) 10 mM

C#CCNC(=O)C1(C(=O)NCCCC[C@@H](C(=O)NCCc2ccc(NC(=O)CCCCCCC(=O)O)cc2)[N+](C)(C)C)COC(c2ccc(C3(C(F)(F)F)N=N3)cc2)OC1 (stereo partly shown) [Compound 2]
Area (MS-peak integration) [1, 4]: 167125312
Area Frac. % [1, 4]: 2.52%

C#CCNC(=O)C1(C(=O)NCCCC[C@@H](C(=O)NCCc2ccc(NC(=O)CCCCCCC(=O)NO)cc2)[N+](C)(C)C)COC(c2ccc(C(O)C(F)(F)F)cc2)OC1 (stereo partly shown) [Compound 3]
Area (MS-peak integration) [1, 4]: 432395200
Area Frac. % [1, 4]: 6.52%
Area (MS-peak integration) ([1]; 1 (CPT600) after UV irradiation, very brief acid (r.t. about 10 s, control)): 3091667200
Area [2, 5]: 2114062848
Area Frac % [2, 5]: 100.00%
Area [2, 6]: 31.679
Area Frac % [2, 6]: 100.00%

C#CCNC(=O)C1(C(=O)NCCCC[C@@H](C(=O)NCCc2ccc(NC(=O)CCCCCCC(=O)O)cc2)[N+](C)(C)C)COC(c2ccc(C(O)C(F)(F)F)cc2)OC1 (stereo partly shown) [Compound 4]
Area (MS-peak integration) [1, 4]: 386267200
Area Frac. % [1, 4]: 5.82%

O=Cc1ccc(C(O)C(F)(F)F)cc1 (stereo not shown) [Compound 6]
amount of cleavage fragment relative to the respective CPG-pN3 sample (UV peak areas) [2, 7]: 8.0%
amount of cleavage fragment relative to the respective sample in solution (UV peak areas) [2, 7]: 3.9%
Area [2, 8]: 63.355
Area Frac % [2, 8]: 55.35%
Area ([2]; On CPG-Ac, 2 h HCl, UV 254 nm): 2.4903
Area Frac % ([2]; On CPG-Ac, 2 h HCl, UV 254 nm): 30.94%
Area ([2]; On CPG-pN3, 2 h HCl, UV 254 nm): 30.9728
Area Frac % ([2]; On CPG-pN3, 2 h HCl, UV 254 nm): 85.18%
amount of cleavage fragment relative to the respective sample in solution (UV peak areas) ([2]; UV-irradiated 1 (CPT600)-loaded CPG-pN3, 2 h acidic treatment): 48.9%

C#CCNC(=O)C(CO)(CO)C(=O)NCCCC[C@@H](C(=O)NCCc1ccc(NC(=O)CCCCCCC(=O)O)cc1)[N+](C)(C)C [Compound 7]
Area (MS-peak integration) [1, 4]: 1798498944
Area Frac. % [1, 4]: 27.10%
amount in supernatant of CPG bead samples compared to solution sample (base peak MS peak areas) ([2]; 2 h acidic treatment): 16.1%
Area [2, 9]: 1793367808
Area Frac % [2, 9]: 35.46%
Area [2, 8]: 15.084
Area Frac % [2, 8]: 13.18%
Area [2, 10]: 114680936
Area Frac % [2, 10]: 41.23%
Area [2, 11]: 288188416
Area Frac % [2, 11]: 65.33%

Cc1nnc(-c2ccc(CN(CC(=O)NCCCCNc3ncnc4c3ncn4C3OC(CSCC[C@H](N)C(=O)O)C(O)C3O)C(=O)CC/C=N/N(C)C(=O)c3ccc(C(O)C(F)(F)F)cc3)cc2)nn1 (stereo partly shown) [Compound 12]
fraction cleaved ([3]; 1 mM or higher concentration of HCl alone, room temperature, within 1 h): more than 60%
detection of starting material ([3]; 10 mM HCl and 1 mM or 10 mM 2-nitrobenzhydrazide): no longer detected
Area/a.u. (LC-MS EIC peak) [3, 12]: 865231808 a.u.
Area/a.u. (LC-MS EIC peak) [3, 13]: 601044672 a.u.
Area/a.u. (LC-MS EIC peak) [3, 14]: 616590720 a.u.
Area/a.u. (LC-MS EIC peak) [3, 15]: 315121856 a.u.
Area/a.u. (LC-MS EIC peak) [3, 16]: 130056936 a.u.
Area/a.u. (LC-MS EIC peak) [3, 17]: 5361744 a.u.
Area/a.u. (LC-MS EIC peak) [3, 18]: 17781000 a.u.

CN(N)C(=O)c1ccc(C(O)C(F)(F)F)cc1 (stereo not shown) [Compound 15]
Area/a.u. (LC-MS EIC peak) [3, 12]: 15540301 a.u.
Area/a.u. (LC-MS EIC peak) [3, 13]: 19033696 a.u.
Area/a.u. (LC-MS EIC peak) [3, 14]: 20155070 a.u.
Area/a.u. (LC-MS EIC peak) [3, 15]: 75526584 a.u.
Area/a.u. (LC-MS EIC peak) [3, 16]: 93782304 a.u.
Area/a.u. (LC-MS EIC peak) [3, 17]: 120971320 a.u.
Area/a.u. (LC-MS EIC peak) [3, 18]: 101335752 a.u.
Area/a.u. (LC-MS EIC peak) [3, 19]: 119463976 a.u.
Area/a.u. (LC-MS EIC peak) [3, 20]: 130339744 a.u.

Cc1nnc(-c2ccc(CN(CC(=O)NCCCCNc3ncnc4c3ncn4C3OC(CSCC[C@H](N)C(=O)O)C(O)C3O)C(=O)CC/C=N/NC(=O)c3ccccc3[N+](=O)[O-])cc2)nn1 (stereo partly shown) [Compound 17]
Area/a.u. (LC-MS EIC peak) [3, 13]: 50293356 a.u.
Area/a.u. (LC-MS EIC peak) [3, 14]: 116403456 a.u.
Area/a.u. (LC-MS EIC peak) [3, 16]: 623734464 a.u.
Area/a.u. (LC-MS EIC peak) [3, 17]: 1157550976 a.u.
Area/a.u. (LC-MS EIC peak) [3, 19]: 694334592 a.u.
Area/a.u. (LC-MS EIC peak) [3, 20]: 1188207104 a.u.
